Measured values taken from ChEMBL document CHEMBL1201862, “PubChem BioAssay data set” (2004).
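Assay format: 96-well plates, 48-hour exposure. Here, GI50 denotes the concentration required for 50% inhibition of growth.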 Active and inactive are the calls of the source. No stated cut-off is given here; in the data, active = GI50 up to about 1.1 µM and inactive = higher. Positions of bridges follow the written chain, without caps; N, C: chain ends. Non-standard residues stand in square brackets, D forms with d. Residues, ends and D or L forms follow the SMILES beside them. ξ: configuration not given here. *: point of attachment. X28 = O=C(/C=C/C=C/C=C/C=C/C=C/C(=O)*)NC1=C(O)CCC1=O; Pro(4R-Me) = C[C@H]1CN[C@H](C(=O)O)C1; NMeA = CN[C@@H](C)C(=O)O; ξF = NC(Cc1ccccc1)C(=O)O; ξA = CC(N)C(=O)O

Legend:
Test in all cases: inhibition of tumour cell growth, NCI panel, 48 h
MOLT-4 = test system: MOLT-4
IGROV-1 = test system: IGROV-1
A498 = test system: A498
Hs-578T = test system: Hs-578T
NCI-H226 = test system: NCI-H226
SF-268 = test system: SF-268
MDA-N = test system: MDA-N
PC-3 = test system: PC-3
KM12 = test system: KM12
MDA-MB-435 = test system: MDA-MB-435
RPMI-8226 = test system: RPMI-8226
NCI/ADR-RES = test system: NCI/ADR-RES
SF-539 = test system: SF-539
SF-295 = test system: SF-295
SK-MEL-5 = test system: SK-MEL-5
TK-10 = test system: TK-10
T47D = test system: T47D
UO-31 = test system: UO-31
CCRF-CEM = test system: CCRF-CEM

SMILES	GI50 (MOLT-4)	GI50 (IGROV-1)	GI50 (A498)	GI50 (Hs-578T)	GI50 (NCI-H226)	GI50 (SF-268)	GI50 (MDA-N)	GI50 (PC-3)	GI50 (KM12)	GI50 (MDA-MB-435)	GI50 (RPMI-8226)	GI50 (NCI/ADR-RES)	GI50 (SF-539)	GI50 (SF-295)	GI50 (SK-MEL-5)	GI50 (TK-10)	GI50 (T47D)	GI50 (UO-31)	GI50 (CCRF-CEM)
COc1ccc(OC)c(-c2cc(C(=O)O)c3cc4ccccc4cc3n2)c1	> 100 µM (inactive)	> 100 µM (inactive)	> 100 µM (inactive)	> 100 µM (inactive)	37.3 µM (inactive)	> 100 µM (inactive)	> 100 µM (inactive)	> 100 µM (inactive)	> 100 µM (inactive)	> 100 µM (inactive)	> 100 µM (inactive)	> 100 µM (inactive)	> 100 µM (inactive)	> 100 µM (inactive)	> 100 µM (inactive)	> 100 µM (inactive)	> 100 µM (inactive)	–	–
O=C(O)c1ccc(C(=O)c2ccccc2C(=O)O)cc1C(=O)O	> 100 µM (inactive)	> 100 µM (inactive)	> 100 µM (inactive)	> 100 µM (inactive)	> 100 µM (inactive)	> 100 µM (inactive)	> 100 µM (inactive)	> 100 µM (inactive)	> 100 µM (inactive)	> 100 µM (inactive)	> 100 µM (inactive)	> 100 µM (inactive)	> 100 µM (inactive)	> 100 µM (inactive)	> 100 µM (inactive)	> 100 µM (inactive)	> 100 µM (inactive)	> 100 µM (inactive)	> 26.4 µM (inactive)
CCSc1n/c(=C\c2ccc(N(C)C)cc2)c2nnnn12	> 100 µM (inactive)	> 100 µM (inactive)	> 100 µM (inactive)	> 100 µM (inactive)	> 100 µM (inactive)	> 100 µM (inactive)	> 100 µM (inactive)	> 100 µM (inactive)	> 100 µM (inactive)	> 100 µM (inactive)	> 100 µM (inactive)	> 100 µM (inactive)	–	99.3 µM (inactive)	> 100 µM (inactive)	> 100 µM (inactive)	> 100 µM (inactive)	–	> 100 µM (inactive)
Oc1cccc2c(Br)ccnc12	0.855 µM (active)	2.12 µM (inactive)	7.82 µM (inactive)	8.55 µM (inactive)	7.1 µM (inactive)	0.767 µM (active)	5.71 µM (inactive)	4.17 µM (inactive)	5.19 µM (inactive)	5.92 µM (inactive)	0.665 µM (active)	2.08 µM (inactive)	3.63 µM (inactive)	1.46 µM (inactive)	2.74 µM (inactive)	32.7 µM (inactive)	3.17 µM (inactive)	2.84 µM (inactive)	0.38 µM (active)
NS(=O)(=O)c1ccc(NC(=O)c2ccc3nc4ccccc4c(Nc4ccc(S(N)(=O)=O)cc4)c3c2)cc1	> 100 µM (inactive)	> 100 µM (inactive)	> 100 µM (inactive)	> 100 µM (inactive)	> 100 µM (inactive)	87.5 µM (inactive)	> 100 µM (inactive)	> 100 µM (inactive)	12.1 µM (inactive)	> 100 µM (inactive)	> 100 µM (inactive)	> 100 µM (inactive)	> 100 µM (inactive)	> 100 µM (inactive)	> 100 µM (inactive)	> 100 µM (inactive)	> 100 µM (inactive)	> 100 µM (inactive)	> 100 µM (inactive)
COc1ccccc1CNC(=O)[C@H](Cc1ccc(O)cn1)NC(C)=O	–	> 100 µM (inactive)	> 100 µM (inactive)	> 100 µM (inactive)	> 100 µM (inactive)	> 100 µM (inactive)	> 100 µM (inactive)	> 100 µM (inactive)	> 100 µM (inactive)	> 100 µM (inactive)	> 100 µM (inactive)	> 100 µM (inactive)	> 100 µM (inactive)	> 100 µM (inactive)	> 100 µM (inactive)	> 100 µM (inactive)	> 100 µM (inactive)	> 100 µM (inactive)	> 100 µM (inactive)
Cc1ccc(S(=O)(=O)Nc2nc3ccccc3c(=O)n2C2CCCCC2)cc1	> 100 µM (inactive)	> 100 µM (inactive)	> 100 µM (inactive)	62.5 µM (inactive)	> 100 µM (inactive)	> 100 µM (inactive)	> 100 µM (inactive)	> 100 µM (inactive)	> 100 µM (inactive)	> 100 µM (inactive)	> 100 µM (inactive)	> 100 µM (inactive)	> 100 µM (inactive)	23.1 µM (inactive)	> 100 µM (inactive)	> 100 µM (inactive)	> 100 µM (inactive)	> 100 µM (inactive)	> 100 µM (inactive)
C#CCN(C(=O)C(F)(F)F)C(/C=C\C(=O)OC)(C(=O)OCC)C(=O)OCC	> 100 µM (inactive)	> 100 µM (inactive)	> 100 µM (inactive)	> 100 µM (inactive)	> 100 µM (inactive)	> 100 µM (inactive)	> 100 µM (inactive)	> 100 µM (inactive)	> 100 µM (inactive)	> 100 µM (inactive)	> 100 µM (inactive)	> 100 µM (inactive)	> 100 µM (inactive)	> 100 µM (inactive)	> 100 µM (inactive)	> 100 µM (inactive)	> 100 µM (inactive)	> 100 µM (inactive)	> 100 µM (inactive)
Cn1c(N(CCO)CCO)cnc1[N+](=O)[O-]	> 100 µM (inactive)	> 100 µM (inactive)	> 100 µM (inactive)	> 100 µM (inactive)	> 100 µM (inactive)	> 100 µM (inactive)	> 100 µM (inactive)	> 100 µM (inactive)	> 100 µM (inactive)	> 100 µM (inactive)	> 100 µM (inactive)	> 100 µM (inactive)	> 100 µM (inactive)	> 100 µM (inactive)	> 100 µM (inactive)	> 100 µM (inactive)	> 100 µM (inactive)	> 100 µM (inactive)	> 100 µM (inactive)
Cc1ccc(S(=O)(=O)N(CC(O)COc2ccccc2)c2c(F)cccc2F)cc1 (stereo not given)	28.3 µM (inactive)	–	19.6 µM (inactive)	20 µM (inactive)	21.9 µM (inactive)	17.1 µM (inactive)	15.8 µM (inactive)	14.3 µM (inactive)	17.7 µM (inactive)	15.4 µM (inactive)	14.4 µM (inactive)	17.5 µM (inactive)	16.9 µM (inactive)	29.2 µM (inactive)	13.8 µM (inactive)	33.7 µM (inactive)	2.21 µM (inactive)	15.7 µM (inactive)	28.7 µM (inactive)
C[C@H]1CC[C@H]([C@@H](C)[C@H]2[C@@H](O)C[C@H]3[C@@H]4CC[C@H]5C[C@@H](O)CC[C@]5(C)[C@H]4CC[C@]23C)NC1	9.66 µM (inactive)	19.2 µM (inactive)	17.4 µM (inactive)	27.1 µM (inactive)	18.1 µM (inactive)	23.1 µM (inactive)	21.3 µM (inactive)	12.4 µM (inactive)	15.2 µM (inactive)	16.7 µM (inactive)	7.31 µM (inactive)	14.7 µM (inactive)	23.6 µM (inactive)	16.9 µM (inactive)	21.3 µM (inactive)	18.3 µM (inactive)	12.6 µM (inactive)	13.9 µM (inactive)	5.53 µM (inactive)
COc1ccc(NC2=NCCO2)c2c1CCCC2	10.5 µM (inactive)	22.8 µM (inactive)	61.1 µM (inactive)	25.9 µM (inactive)	21.9 µM (inactive)	–	35.6 µM (inactive)	26.7 µM (inactive)	42.6 µM (inactive)	29.6 µM (inactive)	24.6 µM (inactive)	27.6 µM (inactive)	33.2 µM (inactive)	27.3 µM (inactive)	17.5 µM (inactive)	51.3 µM (inactive)	35.2 µM (inactive)	53.5 µM (inactive)	25.5 µM (inactive)
CC1(C)CC[C@]2(C(=O)O)CC[C@]3(C)C(=CC[C@@H]4[C@@]5(C)CC[C@H](OC6OC(CO)C(O)C(O)C6O)C(C)(C)[C@@H]5CC[C@]43C)[C@@H]2C1 (stereo not given in full)	1.85 µM (inactive)	1.58 µM (inactive)	2.1 µM (inactive)	2.26 µM (inactive)	1.77 µM (inactive)	1.83 µM (inactive)	1.86 µM (inactive)	1.6 µM (inactive)	1.52 µM (inactive)	1.87 µM (inactive)	2.61 µM (inactive)	7.89 µM (inactive)	–	1.78 µM (inactive)	1.93 µM (inactive)	–	1.82 µM (inactive)	1.71 µM (inactive)	2.22 µM (inactive)
CC1NC(=O)[C@H](C)N(C)C(=O)[C@@H]2CCCN2C(=O)[C@@H](NC(=O)C(Cc2ccccc2)NC(=O)/C=C/C=C/C=C/C=C/C=C/C(=O)NC2=C(O)CCC2=O)COC(=O)[C@@H]2C[C@@H](C)CN2C1=O (stereo partly drawn) (X28-[ξF]SP[NMeA][ξA][Pro(4R-Me)]; ester 2-C)	–	> 100 µM (inactive)	> 100 µM (inactive)	> 100 µM (inactive)	–	> 100 µM (inactive)	> 100 µM (inactive)	> 100 µM (inactive)	> 100 µM (inactive)	> 100 µM (inactive)	> 100 µM (inactive)	> 100 µM (inactive)	> 100 µM (inactive)	> 100 µM (inactive)	> 100 µM (inactive)	54.8 µM (inactive)	> 100 µM (inactive)	> 100 µM (inactive)	> 100 µM (inactive)
